Assay in all cases: Cancer cell growth inhibition, SRB assay
On the technique in general: The SRB assay estimates cell density from bound dye.

For one test, the system named is H460. Format: cell-based, human. The settings on record: SRB at Day 6; for GI50: Homo sapiens, NCI-H460, 144 h, H460 (Lung), triplicate. In outline: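 First, cells are plated according to growth rate and left 24 h; then serum is reduced to 3% FBS in DMEM and compound added (0.1% DMSO). On Day 6 cells are fixed with cold 10% TCA, stained with 0.4% SRB and read at 570 nm.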

In the next test the test system is HCT-8. Format: cell-based, human. The settings on record: at 10 μM, SRB at Day 6.
A further test has as its system MDA-231. It counts as cell-based, human. The settings on record: SRB at Day 6; for GI50: Homo sapiens, MDA-MB-231, 144 h, MDA-231 (Breast), triplicate.
In a further test the test system is TOV-21G. It counts as cell-based. The settings on record: Homo sapiens, TOV21G, 144 h; SRB at Day 6; triplicate.

The structures appear in SMILES notation.

The GI50 is the concentration giving 50% growth inhibition. `CCCCCCCCc1ccc(NC(=O)NC2(CC(=O)O)CC[N+](C)(C)CC2)cc1` [Example S2, 4-(Carboxymethyl)-1,1-dimethyl-4-(3-(4-octylphenyl)ureido)piperidinium 2,2,2-trifluoroacetate] returned a concentration for 50% growth inhibition (GI50) in the test with H460 of 1.8 µM.
As for `CCCCCc1ccc(S(=O)(=O)NC2(CC(=O)O)CN(C)C2)cc1` [Example S27, 3-(carboxymethyl)-1-methyl-3-(4-pentylphenylsulfonamido)azetidinium 2,2,2-trifluoroacetate], the “Percentage of Growth Inhibition” value stood at 0.09153% with HCT-8; 0.1338% in the test on MDA-231 (MDA-231, at 10 μM, NE = no activity at 10 micromolar); 0.00556% in the test with H460 (H460, at 10 μM, NE = no activity at 10 micromolar).
`CCCCCc1ccc(S(=O)(=O)NC2(CC(=O)O)C[N+](C)(C)C2)cc1` [Example S29, 3-(carboxymethyl)-1,1-dimethyl-3-(4-pentylphenylsulfonamido)-azetidinium 2,2,2-trifluoroacetate] had a GI50 with MDA-231 above 50 µM.
Regarding `CCCCCCCCc1ccc(NC(=O)NC2(CC(=O)O)CC[N+](C)(C)C2)cc1` (centres unmarked) [Example S18, 3-(carboxymethyl)-1,1-dimethyl-3-(3-(4-octylphenyl)ureido)-pyrrolidinium 2,2,2-trifluoroacetate], the GI50 in the test with H460 was found to be 2.2 µM.
For `CCCCCc1ccc(S(=O)(=O)NC2(CC(=O)O)CC[N+](C)(C)CC2)cc1` [Example S4, 4-(Carboxymethyl)-1,1-dimethyl-4-(4-pentylphenylsulfonamido)piperidinium 2,2,2-trifluoroacetate], in the test on TOV-21G, the GI50 worked out at 44 µM. This counts as double-digit micromolar.
Consider `CCCCCCCCc1ccc(NS(=O)(=O)NC2(CC(=O)O)CCC[N+](C)(C)C2)cc1` (centres unmarked) [Example S16, 3-(carboxymethyl)-1,1-dimethyl-3-(N-(4-octylphenyl)sulfamoylamino)-piperidinium 2,2,2-trifluoroacetate], for which the GI50 in the test with MDA-231 came out at 0.5 µM.
